Test results: patent publication US4072744A, “N^2 -naphthalenesulfonyl-L-argininamides and the pharmaceutically acceptable salts thereof” (Mitsubishi Chemical Industries Limited, priority 1974, dated 1978)

Assay: acute toxicity (LD50) by intraperitoneal administration in mice
Conditions: mouse, in vivo, ip, mice (male, 20 g)
Source text: Representative LD50 values, for example, for N^2 -(5,6,7,8-tetrahydro-1-naphthalenesulfonyl)-N-methoxyethylglycine, N^2 -(7-methyl-2-naphthalenesulfonyl)-N-butylglycine and N^2 -(6,7-dimethyl-1-naphthalenesulfonyl)-N-methoxyethylglycine are above 1,500 milligrams per kilogram, respectively.

Row | SMILES | LD50
1 | COCCN(CC(=O)O)C(=O)[C@H](CCCNC(=N)N)NS(=O)(=O)c1cccc2c1CCCC2 [Sample 3, N^2-(5,6,7,8-tetrahydro-1-naphthalenesulfonyl)-L-arginyl-N-methoxyethylglycine] | > 1500 mg/kg
2 | CCCCN(CC(=O)O)C(=O)[C@H](CCCNC(=N)N)NS(=O)(=O)c1ccc2ccc(C)cc2c1 [Sample 14, N^2-(7-methyl-2-naphthalenesulfonyl)-L-arginyl-N-butylglycine] | > 1500 mg/kg
3 | COCCN(CC(=O)O)C(=O)[C@H](CCCNC(=N)N)NS(=O)(=O)c1cccc2cc(C)c(C)cc12 [Sample 23, N^2-(6,7-dimethyl-1-naphthalenesulfonyl)-L-arginyl-N-methoxyethylglycine] | > 1500 mg/kg
